Experimental data published in patent US20260234164A1, “BIPHENYL COMPOUND AS IMMUNOMODULATOR, PREPARATION METHOD THEREFOR AND USE THEREOF” (SHENZHEN CHIPSCREEN BIOSCIENCES CO., LTD., priority 2021, published 2026).

tested on: PD-1/PD-L1-mediated T cell activation inhibitory signal; test: CHO-PD-L1-CD3L / Jurkat-PD-1-NFAT co-culture luciferase reporter assay; assay type: cell-based; conditions: Homo sapiens, co-culture 6 h, read-out: EC50 blocking PD-1/PD-L1-mediated T cell activation inhibitory signal
Method: In order to detect the effect of the interaction between PD-1 and PD-L1 on T cell activation signals in the immune response, CHO-PD-L1-CD3L cells stably expressing human PD-L1 molecules and anti-CD3 single-chain antibody (ScFv) and Jurkat-PD-1-NFAT cells stably expressing human PD-1 molecule and NFAT reporter gene were constructed. When the two kinds of cells were co-incubated, the binding of anti-CD3ScFv on the surface of CHO cells and the membrane CD3 molecules of Jurkat cells would transmit an activation signal to Jurkat cells, but simultaneously, the binding of PD-L1 on the surface of CHO cells and PD-1 molecules on the surface of Jurkat cells would transmit an inhibitory signal inward to prevent expression of the luciferase reporter gene. When immune checkpoint antibodies or small molecule inhibitors were added, the binding of PD-1 and PD-L1 was blocked, the NFAT pathway activated by T cell activation signal mediated by cross-linking of CD3ScFv antibody and CD3 was no longer affected by the inhibitory signal, and the downstream luciferase reporter gene started to be expressed. A chemiluminescent signal proportional to reporter gene activation was detected by adding a catalytic substrate.
CHO-PD-L1-CD3L cells expressing human PD-L1 molecule and anti-CD3 single-chain antibody (ScFv) and Jurkat-PD-1-NFAT cells stably expressing human PD-1 molecule and NFAT reporter gene were independently constructed and provided by Dr. Chen Bo (KeyMed Bioscience (Chengdu) Co., Ltd.). Puromycin (Cat #540411) and Hygromycin B (Cat #V900372) for stable culture of transfected cells were purchased from Sigma, PMA (Cat #P1585) was purchased from Sigma, anti-human PD-L1 antibody (Cat #GMP-A066) was purchased from Novoprotein Company. Luciferase substrate solution (Cat #E6485) and luciferase-specific cell lysis solution 5× (Cat #E1531) were purchased from Promega. Fluorescence detection instrument Tecan (Spark 10M) was purchased from Switzerland Tecan Company.
(1) The day before the experiment, 100 μL of CHO-PD-L1-CD3L cells were inoculated in each well of a 96-well cell culture plate (about 4×10^4 cells/well) with a medium of DMEM/F12 containing 10% FBS, 8 μg/mL puromycin and 200 μg/mL hygromycin B, and cultured overnight at 37° C.
(2) The test compounds were diluted with 0.1% PBST into different concentration gradients, added into 96-well plates, and pre-incubated for 30 min. Jurkat-PD-1-NFAT cell count was adjusted to 2×10^5 cells/mL with the RPMI 1640 complete medium containing 10% FBS, […]8 μg/mL puromycin and 200 μg/mL hygromycin B. 100 ng/mL PMA (the stock solution was prepared with DMSO to a concentration of 10 mg/mL) was added to amplify T cell activation signal. 100 μL of the above Jurkat-PD-1-NFAT cells was added to each well of the 96-well plate for co-culture.
(3) When detecting the reaction, a control group was provided, including a solvent control without adding test compounds and a positive control with addition of anti-human PD-1 antibody as the experimental system. All detections were performed with duplicates.
(4) After continuous incubation at 37° C. for 6 h, 40 μL of 5× cell lysate was directly added, and mixed well. The plate was placed at room temperature for 10 min to completely lyse the cells. 50 μL of the lysed cell solution was transferred to a fluorescence detection plate, and added with 30 μL of luciferase substrate solution. The chemiluminescence detection program on the fluorescence detector was immediately selected for detection.
(5) The inhibition rate of T cell activation signal at the cellular level of the test compounds was calculated as follows: Inhibition rate of T cell activation signal (%)=(the original value of chemiluminescence in the detection well−solvent control)/(the highest original value of chemiluminescence detected in the compound detection well−solvent control)×100%. […]

Point of comparison: `[2H]C([2H])([2H])OCC12CCC(CCN3CCc4c(nc(C(=O)Nc5cccc(-c6cccc(NC(=O)c7nc8c(n7C([2H])([2H])[2H])CCN(CCC79CCC(C(=O)O)(CC7)C9)C8)c6C)c5Cl)n4C([2H])([2H])[2H])C3)(CC1)C2` [Compound I-11, 4-(2-(2-((2′-chloro-3′-(5-(2-(4-((methoxy-d3)methyl)bicyclo[2.2.1]heptane-1-yl)ethyl)-1-(methyl-d3)-4,5,6,7-tetrahydro-1H-imidazo[4,5-c]pyridine-2-carboxamido)-2-methyl-[1,1′-biphenyl]-3-yl)carbamoyl)-1-(methyl-d3)-1,4,6,7-tetrahydro-5H-imidazo[4,5-c]pyridin-5-yl)ethyl)bicyclo[2.2.1]heptane-1-carboxylic acid], EC50 58.4 nM. Against it:
- [2H]C([2H])([2H])OCC12CCC(CCN3CCc4c(nc(C(=O)Nc5cccc(-c6cccc(NC(=O)c7nc8c(n7C([2H])([2H])[2H])CCN(CCC79CCC(C(=O)O)(CC7)C9)C8)c6Cl)c5C)n4C([2H])([2H])[2H])C3)(CC1)C2 [Compound I-9, 4-(2-(2-((2-chloro-3′-(5-(2-(4-((methoxy-d3)methyl)bicyclo[2.2.1]heptane-1-yl)ethyl)-1-(methyl-d3)-4,5,6,7-tetrahydro-1H-imidazo[4,5-c]pyridine-2-carboxamido)-2′-methyl-[1,1′-biphenyl]-3-yl)carbamoyl)-1-(methyl-d3)-1,4,6,7-tetrahydro-5H-imidazo[4,5-c]pyridin-5-yl)ethyl)bicyclo[2.2.1]heptane-1-carboxylic acid] — 2.1-fold lower, 28.1 nM
- [2H]C([2H])([2H])OCC12CCC(CCN3CCc4c(nc(C(=O)Nc5cccc(-c6cccc(NC(=O)c7nc8c(n7C)CCN(CCC79CCC(C(=O)O)(CC7)C9)C8)c6Cl)c5F)n4C)C3)(CC1)C2 (single isomer, unassigned) [Compound I-2, 4-(2-(2-((2-chloro-2′-fluoro-3′-(5-(2-(4-((methoxy-d3)methyl)bicyclo[2.2.1]heptane-1-y 1)ethyl)-1-methyl-4,5,6,7-tetrahydro-1H-imidazo[4,5-c]pyridine-2-carboxamido)-[1,1′-biphenyl]-3-yl)carbamoyl)-1-methyl-1,4,6,7-tetrahydro-5H-imidazo[4,5-c]pyridin-5-yl)ethyl)bicyclo[2.2.1]heptane-1-carboxylic acid] — 2.9-fold lower, 19.8 nM
- [2H]C([2H])([2H])n1c(C(=O)Nc2cccc(-c3cccc(NC(=O)c4nc5c(n4C([2H])([2H])[2H])CCN(CCC46CCC(COC)(CC4)C6)C5)c3Cl)c2C)nc2c1CCN(CCC13CCC(C(=O)O)(CC1)C3)C2 [Compound I-12, 4-(2-(2-((2′-chloro-3′-(5-(2-(4-(methoxymethyl)bicyclo[2.2.1]heptane-1-yl)ethyl)-1-(methyl-d3)-4,5,6,7-tetrahydro-1H-imidazo[4,5-c]pyridine-2-carboxamido)-2-methyl-[1,1′-biphenyl]-3-yl)carbamoyl)-1-(methyl-d3)-1,4,6,7-tetrahydro-5H-imidazo[4,5-c]pyridin-5-yl)ethyl)bicyclo [2.2.1]heptane-1-carboxylic acid] — within 1.5-fold, 47.9 nM
- [2H]C([2H])([2H])OCC12CCC(CCN3CCc4c(nc(C(=O)Nc5cccc(-c6cccc(NC(=O)c7nc8c(n7C([2H])([2H])[2H])CCN(CCC79CCC(C(=O)O)(CC7)C9)C8)c6Cl)c5F)n4C([2H])([2H])[2H])C3)(CC1)C2 (single isomer, unassigned) [Compound I-7, 4-(2-(2-((2-chloro-2′-fluoro-3′-(5-(2-(4-((methoxy-d3)methyl)bicyclo[2.2.1]heptane-1-yl)ethyl)-1-(methyl-d3)-4,5,6,7-tetrahydro-1H-imidazo[4,5-c]pyridine-2-carboxamido)-[1,1′-biphenyl]-3-yl)carbamoyl)-1-(methyl-d3)-1,4,6,7-tetrahydro-5H-imidazo[4,5-c]pyridin-5-yl)ethyl)bicyclo[2.2.1]heptane-1-carboxylic acid] — 3-fold lower, 19.6 nM
- [2H]C([2H])([2H])OCC12CCC(CCN3CCc4c(nc(C(=O)Nc5cccc(-c6cccc(NC(=O)c7nc8c(n7C([2H])([2H])[2H])CCN(CCC79CCC(C(=O)O)(CC7)C9)C8)c6Cl)c5Cl)n4C([2H])([2H])[2H])C3)(CC1)C2 [Compound I-5, 4-(2-(2-((2,2′-dichloro-3′-(5-(2-(4-((methoxy-d3)methyl)bicyclo[2.2.1]heptane-1-yl)ethyl)-1-(methyl-d3)-4,5,6,7-tetrahydro-1H-imidazo[4,5-c]pyridine-2-carboxamido)-[1,1′-biphenyl]-3-yl)carbamoyl)-1-(methyl-d3)-1,4,6,7-tetrahydro-5H-imidazo[4,5-c]pyridin-5-yl)ethyl)bicyclo[2.2.1]heptane-1-carboxylic acid] — 4.7-fold lower, 12.5 nM
- [2H]C([2H])([2H])n1c(C(=O)Nc2cccc(-c3cccc(NC(=O)c4nc5c(n4C([2H])([2H])[2H])CCN(CCC46CCC(C(=O)O)(CC4)C6)C5)c3Cl)c2C)nc2c1CCN(CCC13CCC(COC)(CC1)C3)C2 [Compound I-10, 4-(2-(2-((2-chloro-3′-(5-(2-(4-(methoxymethyl)bicyclo[2.2.1]heptane-1-yl)ethyl)-1-(methyl-d3)-4,5,6,7-tetrahydro-1H-imidazo[4,5-c]pyridine-2-carboxamido)-2′-methyl-[1,1′-biphenyl]-3-yl)carbamoyl)-1-(methyl-d3)-1,4,6,7-tetrahydro-5H-imidazo[4,5-c]pyridin-5-yl)ethyl)bicyclo[2.2.1]heptane-1-carboxylic acid] — 2-fold lower, 29.9 nM
- [2H]C([2H])([2H])n1c(C(=O)Nc2cccc(-c3cccc(NC(=O)c4nc5c(n4C([2H])([2H])[2H])CCN(CCC46CCC(C(=O)O)(CC4)C6)C5)c3Cl)c2Cl)nc2c1CCN(CCC13CCC(COC)(CC1)C3)C2 [Compound I-6, 4-(2-(2-((2,2′-dichloro-3′-(5-(2-(4-((methoxy)methyl)bicyclo[2.2.1]heptane-1-yl)ethyl)-1-(methyl-d3)-4,5,6,7-tetrahydro-1H-imidazo[4,5-c]pyridine-2-carboxamido)-[1,1′-biphenyl]-3-yl)carbamoyl)-1-(methyl-d3)-1,4,6,7-tetrahydro-5H-imidazo[4,5-c]pyridin-5-yl)ethyl)bicyclo[2.2.1]heptane-1-carboxylic acid] — 4.7-fold lower, 12.5 nM
- [2H]c1c([2H])c(NC(=O)c2nc3c(n2C)CCN(CCC24CCC(COC([2H])([2H])[2H])(CC2)C4)C3)c(F)c(-c2c([2H])c([2H])c([2H])c(NC(=O)c3nc4c(n3C)CCN(CCC35CCC(C(=O)O)(CC3)C5)C4)c2Cl)c1[2H] (single isomer, unassigned) [Compound I-14, 4-(2-(2-((2-chloro-2′-fluoro-3′-(5-(2-(4-((methoxy-d3)methyl)bicyclo[2.2.1]heptane-1-y 1)ethyl)-1-methyl-4,5,6,7-tetrahydro-1H-imidazo[4,5-c]pyridine-2-carboxamido)-[1,1′-biphenyl]-3-yl-4,4′,5,5′,6,6′-d6)carbamoyl)-1-methyl-1,4,6,7-tetrahydro-5H-imidazo[4,5-c]pyridin-5-yl)ethyl)bicyclo[2.2.1]heptane-1-carboxylic acid] — 3.9-fold lower, 15.1 nM
- [2H]c1c([2H])c(NC(=O)c2nc3c(n2C([2H])([2H])[2H])CCN(CCC24CCC(COC([2H])([2H])[2H])(CC2)C4)C3)c(Cl)c(-c2c([2H])c([2H])c([2H])c(NC(=O)c3nc4c(n3C([2H])([2H])[2H])CCN(CCC35CCC(C(=O)O)(CC3)C5)C4)c2Cl)c1[2H] [Compound I-13, 4-(2-(2-((2,2′-dichloro-3′-(5-(2-(4-((methoxy-d3)methyl)bicyclo[2.2.1]heptane-1-yl)ethyl)-1-(methyl-d3)-4,5,6,7-tetrahydro-1H-imidazo[4,5-c]pyridine-2-carboxamido)-[1,1′-biphenyl]-3-yl-4,4′, 5,5′,6,6′-d6)carbamoyl)-1-(methyl-d3)-1,4,6,7-tetrahydro-5H-imidazo[4,5-c]pyridin-5-yl)ethyl)bicyclo[2.2.1]heptane-1-carboxylic acid] — 2.2-fold lower, 26.2 nM
